Reference: PubChem BioAssay AID1259407 (Chemical Carcinogenesis Research Information System (CCRIS), 2018)
Calls of active or inactive are those of the source. The rule behind the calls is not given here.

System: CCRIS mutagenicity, Ames/micronucleus/aberration tests
Experiment: CCRIS mutagenicity studies
[1] = Test System: AMES SALMONELLA TYPHIMURIUM, Strain/Indicator: TA98, Metabolic Activation: NONE, Method: STANDARD PLATE
[2] = Test System: AMES SALMONELLA TYPHIMURIUM, Strain/Indicator: TA100, Metabolic Activation: NONE, Method: STANDARD PLATE
[3] = Test System: AMES SALMONELLA TYPHIMURIUM, Strain/Indicator: TA1535, Metabolic Activation: NONE, Method: STANDARD PLATE
[4] = Test System: AMES SALMONELLA TYPHIMURIUM, Strain/Indicator: TA1537, Metabolic Activation: NONE, Method: STANDARD PLATE
[5] = Test System: AMES SALMONELLA TYPHIMURIUM, Strain/Indicator: TA98, Metabolic Activation: RAT, LIVER, S-9, AROCLOR 1254, Method: STANDARD PLATE
[6] = Test System: AMES SALMONELLA TYPHIMURIUM, Strain/Indicator: TA100, Metabolic Activation: RAT, LIVER, S-9, AROCLOR 1254, Method: STANDARD PLATE

For `CC(=O)Nc1snc2ccccc12`, the mutagenic call [1] was “inactive; negative”, the mutagenic call (Test System: AMES SALMONELLA TYPHIMURIUM, Strain/Indicator: TA98, Metabolic Activation: S-9, Method: STANDARD PLATE) was “inactive; negative” and the mutagenic call [2] was “inactive; negative”. The mutagenic call (Test System: AMES SALMONELLA TYPHIMURIUM, Strain/Indicator: TA100, Metabolic Activation: S-9, Method: STANDARD PLATE) was “active; positive”, the mutagenic call [3] was “inactive; negative” and the mutagenic call (Test System: AMES SALMONELLA TYPHIMURIUM, Strain/Indicator: TA1535, Metabolic Activation: S-9, Method: STANDARD PLATE) was “inactive; negative”. The mutagenic call [4] was “active; positive” and the mutagenic call (Test System: AMES SALMONELLA TYPHIMURIUM, Strain/Indicator: TA1537, Metabolic Activation: S-9, Method: STANDARD PLATE) was “active; positive”.
`CCOP(=O)(OCC)Oc1cc(-c2ccccc2)on1` was tested, and the mutagenic call [1] was “inactive; negative”, the mutagenic call (Test System: AMES SALMONELLA TYPHIMURIUM, Strain/Indicator: TA98, Metabolic Activation: RAT, LIVER, S-9, Method: STANDARD PLATE) was “inactive; negative” and the mutagenic call [2] was “inactive; negative”. For the same molecule, the mutagenic call (Test System: AMES SALMONELLA TYPHIMURIUM, Strain/Indicator: TA100, Metabolic Activation: RAT, LIVER, S-9, Method: STANDARD PLATE) was “inactive; negative”.
`CC(C)NC(=O)/C=C/c1ccc([N+](=O)[O-])o1` was tested, and the mutagenic call (Test System: AMES SALMONELLA TYPHIMURIUM, Strain/Indicator: TA98, Metabolic Activation: NONE, Method: PREINCUBATION) was “active; positive” and the mutagenic call (Test System: CHINESE HAMSTER V-79, Strain/Indicator: V-79/6-THIOGUANINE, Metabolic Activation: NONE, Method: STANDARD PLATE) was “active; positive”.
For `Nc1ccccc1SCCSc1ccccc1N`, the mutagenic call [5] was “inactive; negative” and the mutagenic call [6] was “active; positive”.
For `NC(=O)N(CCF)N=O`, the mutagenic call (Test System: E. COLI B, Strain/Indicator: H/R30R, Metabolic Activation: NONE) was “active; positive” and the mutagenic call (Test System: E. COLI B, Strain/Indicator: HS30R, Metabolic Activation: NONE) was “active; positive”.
In the case of `Oc1ccc2cccnc2c1`, the mutagenic call [2] is reported as “inactive; negative” and the mutagenic call (Test System: AMES SALMONELLA TYPHIMURIUM, Strain/Indicator: TA100, Metabolic Activation: RAT, LIVER, S-9, AROCLOR 1254 (10% OR 20%), Method: STANDARD PLATE) is reported as “inactive; negative”.
For `CC1(c2ccc(Br)cc2)CO1` (stereo unspecified), the mutagenic call (Test System: AMES SALMONELLA TYPHIMURIUM, Strain/Indicator: TA100, Metabolic Activation: NONE, Method: PREINCUBATION) was “inactive; negative”.
`Cc1cc2cccc3ccc4cc5ccccc5c1c4c32` was tested, and the mutagenic call (Test System: AMES SALMONELLA TYPHIMURIUM, Strain/Indicator: TA100, Metabolic Activation: RAT, INTACT HEPATOCYTES, AROCLOR 1254, Method: PREINCUBATION) was “active; positive” and the mutagenic call (Test System: AMES SALMONELLA TYPHIMURIUM, Strain/Indicator: TA100, Metabolic Activation: RAT, NADPH-FORTIFIED HOMOGENIZED HEPATOCYTES, AROCLOR 1254, Method: PREINCUBATION) was “active; positive”.
`CC(C)CCON=O` was tested, and the mutagenic call (End Point: IN VITRO CHROMOSOMAL ABERRATIONS, Test System: CHINESE HAMSTER OVARY CELLS, Metabolic Activation: NONE) was “active; positive”, the mutagenic call (End Point: IN VITRO CHROMOSOMAL ABERRATIONS, Test System: CHINESE HAMSTER OVARY CELLS, Metabolic Activation: RAT, LIVER, S-9, AROCLOR 1254) was “inactive; negative” and the mutagenic call (Test System: AMES SALMONELLA TYPHIMURIUM, Strain/Indicator: TA98, Metabolic Activation: HAMSTER, LIVER, S-9, AROCLOR 1254, Method: STANDARD PLATE) was “inactive; negative”. For the same molecule, the mutagenic call [1] was “inactive; negative”, the mutagenic call [5] was “inactive; negative” and the mutagenic call (Test System: AMES SALMONELLA TYPHIMURIUM, Strain/Indicator: TA100, Metabolic Activation: HAMSTER, LIVER, S-9, AROCLOR 1254, Method: STANDARD PLATE) was “inactive; negative”. For the same molecule, the mutagenic call [2] was “inactive; negative”, the mutagenic call [6] was “inactive; negative” and the mutagenic call (Test System: AMES SALMONELLA TYPHIMURIUM, Strain/Indicator: TA1535, Metabolic Activation: HAMSTER, LIVER, S-9, AROCLOR 1254, Method: STANDARD PLATE) was “active; positive”. The mutagenic call [3] was “active; positive”, the mutagenic call (Test System: AMES SALMONELLA TYPHIMURIUM, Strain/Indicator: TA1535, Metabolic Activation: RAT, LIVER, S-9, AROCLOR 1254, Method: STANDARD PLATE) was “active; positive” and the mutagenic call (Test System: AMES SALMONELLA TYPHIMURIUM, Strain/Indicator: TA1537, Metabolic Activation: HAMSTER, LIVER, S-9, AROCLOR 1254, Method: STANDARD PLATE) was “inactive; negative”. The mutagenic call [4] was “inactive; negative”, the mutagenic call (Test System: AMES SALMONELLA TYPHIMURIUM, Strain/Indicator: TA1537, Metabolic Activation: RAT, LIVER, S-9, AROCLOR 1254, Method: STANDARD PLATE) was “inactive; negative” and the mutagenic call (Test System: MOUSE LYMPHOMA, Strain/Indicator: L5178Y (TK+/TK-), Metabolic Activation: NONE, Method: SUSPENSION/PLATE) was “active; positive”. The mutagenic call (Test System: MOUSE LYMPHOMA, Strain/Indicator: L5178Y (TK+/TK-), Metabolic Activation: RAT, LIVER, S-9, AROCLOR 1254, Method: SUSPENSION/PLATE) was “active; positive”.
In the case of `CC(=O)ON(OCc1ccc(C)cc1)C(=O)c1ccccc1`, the mutagenic call [2] is reported as “active; positive” and the mutagenic call (Test System: AMES SALMONELLA TYPHIMURIUM, Strain/Indicator: TA100, Metabolic Activation: RAT, S-9, AROCLOR, Method: STANDARD PLATE) is reported as “active; positive”.
